Experimental data published in the SangsterLogP compilation.

Assay: method code SF-AS, from DOI: 10.1080/10826079608005496

| logP | Structure (SMILES) |
| --- | --- |
| 2.12 | CC(C)OC(=O)CS(=O)(=O)c1ccc([N+](=O)[O-])cc1Cl |
| 0.79 | COC(=O)CS(=O)c1ccc([N+](=O)[O-])cc1[N+](=O)[O-] (stereo not drawn) |
| 3.29 | CC(C)OC(=O)CSc1ccc([N+](=O)[O-])cc1Cl |
| 2.04 | CC(C)OC(=O)CS(=O)c1ccc([N+](=O)[O-])cc1Cl (stereo not drawn) |

The next lines start with the compound.

| Structure (SMILES) | logP |
| --- | --- |
| COC(=O)CSc1ccc([N+](=O)[O-])cc1Cl | 2.66 |
| COC(=O)CS(=O)(=O)c1ccc(Cl)cc1[N+](=O)[O-] | 1.6 |
| CC(C)OC(=O)CS(=O)(=O)c1ccc(Cl)cc1[N+](=O)[O-] | 2.24 |
| CC(C)OC(=O)CSc1ccc([N+](=O)[O-])cc1[N+](=O)[O-] | 2.72 |
| CC(C)OC(=O)CSc1ccc(Cl)cc1[N+](=O)[O-] | 3.14 |
| CC(C)OC(=O)CS(=O)(=O)c1ccc([N+](=O)[O-])cc1 | 1.79 |
| CC(C)OC(=O)CS(=O)(=O)c1ccccc1[N+](=O)[O-] | 1.6 |
| COC(=O)CSc1ccc(Cl)cc1[N+](=O)[O-] | 2.5 |
| CC(C)OC(=O)CSc1ccc([N+](=O)[O-])cc1 | 2.66 |
